Molecular target: T1, Troponin C, slow skeletal and cardiac muscles [4-85] (Human, UniProt P63316)
T1 construct: 4-85
Experiment: Fluorescence Polarization Assay
Conditions: pH 7; 14 °C
Procedure: The fluorescence polarization assays were performed at 298 K following a protocol modified from previously reported protocol [Zhuo et al., Mol. Biosyst., 12:2532-2540]. Synthetic peptides were labeled with fluorescein. Titrations were conducted by monitoring polarization as a function of increasing amounts of the proteins of TnC N-terminal domain added to 20 nM fluorescein-peptides in a buffer 50 mM HEPES, pH 7.0, 0.1% Tween 20, 200 mM NaCl and 15 mM DTT.

T1 sequence (P63316 4-85): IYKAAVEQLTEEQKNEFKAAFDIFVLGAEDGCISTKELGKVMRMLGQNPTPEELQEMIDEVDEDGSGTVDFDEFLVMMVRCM

Kd [µM] | Compound
4.2 | CC[C@H](C)[C@H](N)C(=O)N[C@@H](CO)C(=O)N[C@@H](C)C(=O)N[C@@H](CC(=O)O)C(=O)N[C@@H](C)C(=O)N[C@@H](CCSC)C(=O)N[C@@H](CCSC)C(=O)N[C@@H](CCC(N)=O)C(=O)N[C@@H](C)C(=O)N[C@@H](CC(C)C)C(=O)N[C@@H](CC(C)C)C(=O)NCC(=O)N[C@@H](C)C(=O)N[C@@H](CCCNC(=N)N)C(=O)N[C@@H](C)C(=O)N[C@@H](CCCCN)C(=O)N[C@@H](CCC(=O)O)C(=O)N[C@@H](CO)C(=O)O [ISADAMMQALLGARAKES]
15.7 | CSCC[C@H](NC(=O)[C@H](C)NC(=O)[C@H](CC(=O)O)NC(=O)[C@H](C)N)C(=O)N[C@@H](CCSC)C(=O)N[C@@H](CCC(N)=O)C(=O)N[C@@H](C)C(=O)N[C@@H](CC(C)C)C(=O)N[C@@H](CC(C)C)C(=O)NCC(=O)N[C@@H](C)C(=O)N[C@@H](CCCNC(=N)N)C(=O)O [ADAMMQALLGAR]

— BindingDB's records for doi:10.1016/j.bioorg.2017.05.004 (The Affiliated Hospital of Qingdao University, 2017)
